Measurements from patent US8741970B2, “Composition and method for the enhancement of the efficacy of drugs” (Alchemia Oncology Pty Limited, priority 1999, dated 2014).
Where “and” joins values, the source holds several entries; their conditions need not be identical. Equal entries are not always repeated.

What was measured:
[1] = test system: Human Breast Cancer Xenografts (MDA-MB-468); experiment: 5-FU/HA adjuvant therapy efficacy, 6-month study; type: in vivo
Protocol: (§1) One of the most commonly used treatment regimens for human breast cancer is cyclophosphamide, methotrexate and 5-fluorouacil which is administered on day 1 and 8 of a 28 day cycle. In human breast cancer the initial treatment regimen is for 6 cycles at which time the patient condition is re-assessed, therefore we tried to simulate the human treatment regimen as closely as possible by exposing the mice to 6 cycles (6 months) of treatment in a long term efficacy study and a 6 cycles (6 week) short term efficacy study. Considering the life cycle of a mouse is approximately 2 years we commenced both short-term and long-term treatment protocols as shown in Table 8.
(§2) Mice were randomly divided into 7 groups of 8 animals per group for the short term study and 5 groups of 8 animals for the long term study (refer to Table 8 for dosage and treatment administration schedule).
(§3) Animals were weighed and tumour volumes measured on the day of treatment application for long term study as described in Example 8. In the 6-week study animals were weighed and tumour volumes measured on a daily basis. […] It has been experimentally proven that stress can be a major factor in a patients response to chemotherapy (Shackney et al, 1978), therefore we ensured that equal numbers of mice were allocated to each cage, the animal number per cage varied from 5-8 depending on the stage of experimentation.
(§4) The experimental end-point occurred when the animal had to be euthanised due to degree of disease progression or when the 6 month (long term) or 6 week (short term) treatment regimen was completed. Due to the animal ethics guidelines the animals were monitored fortnightly by an independent animal ethics officer who assessed the degree of disease progression.
The TDT is the time taken (days) for a tumour to double in mass or cell number, a parameter of tumour growth which is simple to measure and can be easily related to clinical tumour behaviour in conceptional terms (Shackney et al, 1978). By monitoring the tumour doubling time it is often possible to evaluate tumour chemotherapeutic response, as slowly growing tumours tend to respond poorly to chemotherapy (Schabel, 1975).
The overall patient survival time was calculated as the time (days or weeks) that the animal lived after the commencement of treatment.

[2] = 1H NMR titration and diffusion experiments of 5-FU with HA; type: physicochemical; conditions: 600 MHz 1H NMR titration; HA 750 kDa, 3 mg/mL; pH 8.8 to 9.1
Protocol: To further investigate the nature of the interaction between HA and chemotherapeutic drugs 1H Nuclear Magnetic Resonance (NMR) spectroscopy was used. Deuterium oxide (^2H2O (99.96%)) was obtained from Cambridge Isotope Laboratories. MTX was obtained from Faulding Pharmaceuticals and 5-FU and HA stock solutions were prepared as described previously.
Spectra were recorded at 298 K on a Brüker DRX spectrometer operating at 600 MHz with a shielded gradient unit. The 2D experiments were recorded in phase-sensitive mode using time-proportional phase incrementation for quadrature detection in the t1 dimension (Marion & Wüthrich, 1983). The 2D experiments included TOCSY sequence using a MLEV-17 spin lock sequence (Bax & Davis, 1985) with a mixing time of 120 ms; NOESY (Kumar et al., 1980) with mixing times of 250 and 400 ms and ROESY spectrum with a mixing time of 250 ms. Temperature calibration of the probe was achieved by comparison to ethylene glycol chemical shifts. All chemical shifts (ppm) were referenced to the methyl resonance of 4,4-dimethyl-4-silapentane-1-sulfonate (DSS, 0 ppm).
NMR diffusion experiments were acquired on a Brüker AMX spectrometer equipped with a gradient control unit operating at 500 MHz. All experiments were acquired with 16 or 64 scans at 298 K over 16K of data points and 7575 Hz. A gradient strength of 15.44 G/cm was employed for the diffusion experiments. […]

[3] = in vivo; cited from earlier work
[4] = iv 10.5 mg/kg (400 mg/m^2), within 30 min; cited from earlier work
MDA-MB-468 = experiment: Drug cytotoxicity assay (cell count after 4 days in test media), MDA-MB-468; type: cell-based; conditions: Homo sapiens, 96 h, 5-FU alone
Protocol: A stock of HA solution (10 μM, 7 mg/ml) was prepared by dissolving desiccated HA (modal Mr 7×10^5 Da,) in 0.9% w/v pyrogen-free injection grade NaCl. To ensure a homogenous solution the HA was dissolved overnight at 4° C. followed by thorough vortexing. To ensure that ‘the HA had maintained its molecular weight during the preparation of the stock solution, the solution was analysed on a Sephacryl S-1000 size exclusion gel with column −40 specifications of 1.6 cm×70 cm, sample size 2 ml, flow rate 18.1/h and 2 ml fraction size. The HA was used at a final concentration of 1000 nm, with all dilutions made in the appropriate growth medium.
Based on these plasma concentrations in vivo the following drug concentrations were selected; 0, 1, 5, 10, 20, 50, 100 μM 5-FU±100 nM HA. […] When the cultures reached confluence the cells were removed from the flasks in 0.25% trypsin/0.05% EDTA. The single-cell suspension was counted with a Coulter counter (ZM1 model) and cells were resuspended to 100,000 cells/ml in cell-specific media. Cells were plated into 24-well plates (2 cm^2 surface area) by adding 0.5 ml of cell suspension per well, resulting in 50,000 cells/well. […] After 4 days of growth in test media the cultures were washed with HBSS, the cells removed from the well by trypsinisation with 0.25% trypsin/0.05% EDTA and cells were counted with a Coulter Counter.

[5] = test system: Human Breast Cancer Xenografts (MDA-MB-468); experiment: 5-FU/HA adjuvant therapy efficacy, 6-week study; type: in vivo
Protocol: as §1, §2, §3, §4
The tissue was fixed for 16-24 h before histological processing. Fixed tissue was dehydrated stepwise to 100% ethanol and embedded in paraffin blocks from which 2-4 μm sections were placed on glass microscope slides. Staining the tissue sections with a haematoxylin nuclear stain and eosin cytoplasmic stain highlighted any pathological features that could indicate treatment toxicity.
Nine to 11 lymph nodes were collected per animal, ensuring that all nodes which drained the tumour area were collected. There are currently two methods used for the detection of lymph node metastasis:
The haematoxylin and eosin stained lymph nodes were examined by Dr P. Allen (certified pathologist) where each node was microscopically examined for the presence of tumour cells. The CEA immunostained lymph nodes were microscopically examined, where any positively stained nodes were counted and considered positive for lymph node metastasis.
Tumour volume was monitored on a daily or weekly basis by calliper measurements and tumour volume calculated as previously described in example 8.
One of the most common toxic effects of 5-FU is on the gastro-intestinal tract where haemorrhagic enteritis and intestinal perforation can occur (Martindale, 1993). Animals were monitored daily for GI tract upset such as diarrhoea and weekly for more severe toxicity manifestations such as weight loss. Weight loss was monitored by calculating net body weight as estimated by subtracting tumour weight, which was calculated as 1 g×tumour volume (cm^3) as cited in Shibamoto et al, 1996.

[6] = 1H NMR deuterium exchange and transferred NOESY of MTX with HA; type: physicochemical
Source text: Solvent suppression of the water signal for NOESY, ROESY and TOCSY experiments was achieved using a modified WATERGATE sequence (Piotto et al., 1992) in which two gradient pulses of 1 ms was applied on either side of a binomial 3-9-19 pulse. Spectra was routinely acquired over 6024 Hz with 4096 complex data points in F2 and 512 increments in the F1 dimension, with 32 scans per increment for the TOCSY experiments and 80 scans for the NOESY. Slowly exchanging NH protons were detected by acquiring a series of one-dimensional (1D) spectra acquired over 16K data points and with 32 scans. […]

[7] = test system: murine Lewis lung xenografts; conditions: low dose of 0.01 mg/kg; cited from earlier work
[8] = control schedule HA D1,3 / 5-FU D 2, 4 of 7 day cycle

## O=c1[nH]cc(F)c(=O)[nH]1 [5-FU, 5-fluorouracil]
[1]; 6-month study, % of animals
  Experimental endpoint: immobilsed: 62.5% immobilsed
[1]; 6-month study, after approximately 12 weeks of treatment
  mice experiencing a cure (tumours fully necrosed and dropped off): did not experience a “cure”
[1]; 6-month study, days 1 & 8 of 28 day cycle (HA followed by 5-FU: days 1, 2, 8, 9)
  TDT Mean ± SEM: 22.7 ± 2.9 days
[1]; mouse, in vivo
  Experimental endpoint: metabolic stress: 37.5% metabolic
[2]
  interaction of 5-FU with HA (chemical shift of CH peak): does not appear to be interacting
[3]
  cure rate: 26%
[4]
  peak plasma level: 8 μg/ml and 61 μM
MDA-MB-468
  IC50: > 50 µM
[5]
  primary tumour at end of the 6 week study compared with the saline group: significantly smaller tumours
[5]; [8]
  Number of animal completing treatment: 8/8
  TDT Mean ± SEM: 15.3 ± 2.5 days
[5]; days 1 & 2 of 7 day cycle
  % of animals with lymph node metastasis: 100%
  % of lymph node involved per animal mean ± SEM: 14.3 ± 2.9%
  Number of new tumours: 1
[5]; days 1 & 2 of 7 day cycle (HA followed by 5-FU: days 1-4)
  Number of animal completing treatment: 8/8
[5]; days 1 & 2 of 7 day cycle (HA followed by 5-FU: days 1-4), 30 mg/kg 5-FU, 12.5 mg/kg HA
  TDT Mean ± SEM: 32.1 ± 3.5 days

## CN(Cc1cnc2nc(N)nc(N)c2n1)c1ccc(C(=O)N[C@@H](CCC(=O)O)C(=O)O)cc1 [MTX, methotrexate]
[6]; MTX and HA in 0.5% w/v Na2CO3 (pH 9), deuterium oxide added
  time for all amine hydrogens of MTX to exchange with deuterium: ≤ 4 min
[6]; MTX/HA, no crosspeaks
  interaction between MTX and HA (transferred NOESY): negligible interaction

## CO[C@@]12[C@H](COC(N)=O)C3=C(C(=O)C(C)=C(N)C3=O)N1C[C@@H]1N[C@@H]12 [mitomycin C]
[7]
  anti-tumour activity: did not demonstrate anti-tumour activity
